Data taken from patent US8288371B2, “Ortho pyrrolidine, benzyl-substituted heterocycle CCR1 antagonists for autoimmune diseases and inflammation” (Pharmacopeia, LLC, priority 2007, dated 2012).

These compounds were tested against T1, human CCR1 (Homo sapiens, UniProt P32246) (assay: CCR1 binding protocol (SPA, [125I]-MIP-1α displacement)). Details: cell membrane expressing human CCR1, 0.1 nM [125I]-MIP-1α, 4 hours at ambient temperature; read-out: Relative potency (IC50).
T1 sequence (P32246 1-355): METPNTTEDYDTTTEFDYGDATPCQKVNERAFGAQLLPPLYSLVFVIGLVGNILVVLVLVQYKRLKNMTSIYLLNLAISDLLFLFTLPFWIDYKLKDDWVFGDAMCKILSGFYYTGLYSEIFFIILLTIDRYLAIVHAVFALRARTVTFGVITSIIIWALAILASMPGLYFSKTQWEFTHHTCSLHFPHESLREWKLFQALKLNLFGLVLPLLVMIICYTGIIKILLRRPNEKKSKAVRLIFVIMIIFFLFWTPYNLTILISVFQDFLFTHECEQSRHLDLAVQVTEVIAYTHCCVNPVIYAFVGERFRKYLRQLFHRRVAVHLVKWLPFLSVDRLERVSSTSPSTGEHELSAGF
Method: The following protocol was used to test compounds for CCR1 binding. A mixture, including scintillation proximity assay (SPA) beads and cell membrane expressing human CCR1, was prepared in assay buffer (130 mM NaCl+5 mM KCl+1 mM MnCl+50 mM Tris HCl at pH 7.4+0.1% bovine serum albumin (BSA)) at the ratio of 50 μg/ml membrane to 10 mg/ml SPA beads. 10 μl of the mixture was transferred to each well of a 384-well assay plate yielding a final concentration for the membrane and SPA beads of 0.5 μg/well and 100 μg/well, respectively
To generate different concentrations of the test compound, compound stocks were prepared using 10 step ½ log dilutions with a high concentration of 10 mM in DMSO and the lowest concentration being DMSO only without compound. An intermediate 40× dilution was then prepared in the assay buffer. The compound was then transferred at 10 μl/well to the assay plate. 0.5 nM [^125 I]-labeled macrophage inflammatory protein-1α (MIP-1α, an endogenous CCR1 ligand) in the assay buffer was transferred to the assay plate at 5 μl/well, for a final ligand concentration of 0.1 nM. The assay plate was then centrifuged at 2500 rpm for 2 minutes and incubated for 4 hours at ambient temperature, at which time the raw data was recorded using microbeta. The IC50 was then calculated using Graphpad Prism.
With `Cc1noc(-c2ccccc2)c1NC(=O)N1CCC[C@@H]1c1ncncc1Cc1ccc(Cl)cc1` [Compound 14] the IC50 was < 50 nM. Compound `C[C@@H](NC(=O)N1CCC[C@@H]1c1nnc(CO)n1Cc1ccc(Cl)cc1)c1ccc(Cl)cc1` [Compound 401] has an IC50 of 50 to 500 nM. With `Cc1nc([C@H]2CCCN2C(=O)Nc2ccc(C(F)(F)F)cc2)n(Cc2ccc(Cl)cc2)n1` [Compound 92] the IC50 was 500 to 5000 nM. Compound `Cc1nnc([C@H]2CCCN2/C(=N\C#N)N[C@H]2CCOc3cc(C#N)ccc32)n1Cc1ccc(Cl)cc1` [Compound 345] has an IC50 of 50 to 500 nM. For `Cc1nnc([C@H]2C[C@@H](O)CN2C(=O)Nc2ccc(Cl)c(C(F)(F)F)c2)n1Cc1ccc(Cl)cc1` [Compound 446], the IC50 was 50 to 500 nM. Work on `Cc1nnc([C@H]2CCCN2C(=O)Nc2cc(C(=O)N(C)C)ccc2F)n1Cc1ccc(Cl)cc1` [Compound 302] yielded an IC50 of 50 to 500 nM. With `Cc1nnc([C@H]2CCCN2C(=O)N[C@H]2CCOc3cc(C(F)(F)F)ccc32)n1Cc1cccc(Cl)c1` [Compound 336] the IC50 was 500 to 5000 nM. For `Cc1nnc([C@H]2CCCN2C(=O)Nc2ccc(Cl)cc2F)n1[C@H](C)c1ccc(Cl)cc1` [Compound 349], the IC50 was 50 to 500 nM. `CNS(=O)(=O)c1cc(NC(=O)N2CCC[C@@H]2c2nnc(C)n2Cc2ccc(Cl)cc2)c(C)cc1C` [Compound 484] was tested, and the IC50 was < 50 nM. In the case of `CC[C@H](NC(=O)N1CCC[C@@H]1c1nnc(C)n1Cc1ccc(Cl)cc1)c1ccccc1` [Compound 181], the IC50 is reported as < 50 nM. `CC(C)Cc1ccc([C@H](C)NC(=O)N2CCC[C@@H]2c2ncnn2Cc2ccc(Cl)cc2)cc1` [Compound 75] gave an IC50 of 50 to 500 nM. For `Cc1noc(C)c1NC(=O)N1CCC[C@@H]1c1nnc(C)n1Cc1ccc(Cl)nc1` [Compound 366], the IC50 was 50 to 500 nM. Work on `CC[C@H](NC(=O)N1CCC[C@@H]1c1nccn1Cc1ccc(Cl)cc1)c1ccc(C(F)(F)F)cc1` [Compound 44] yielded an IC50 of 50 to 500 nM. In the case of `O=C(NC1(c2ccccc2)CC1)N1CCC[C@@H]1c1ncnn1Cc1ccc(Cl)cc1` [Compound 100], the IC50 is reported as 500 to 5000 nM. For `Cc1nnc([C@H]2CCCN2C(=O)NCC2CCOC2)n1Cc1ccc(Cl)cc1` (stereo partly drawn) [Compound 594], the IC50 was 500 to 5000 nM. `Cc1nnc([C@H]2CCCN2C(=O)Nc2ccc(Cl)c(F)c2)n1Cc1ccc(Cl)cc1` [Compound 408] was tested, and the IC50 was 50 to 500 nM. `Cc1nnc([C@H]2CCCN2C(=O)C[C@@H](C)c2ccccc2)n1Cc1ccc(Cl)cc1` [Compound 482] was tested, and the IC50 was 500 to 5000 nM. For `Cc1nnc([C@H]2CCCN2/C(=N\C#N)N[C@@H](C)c2cc3ccccc3o2)n1Cc1ccc(Cl)cc1` [Compound 195], the IC50 was < 50 nM. `O=C(NCc1ccc(Cl)cc1Cl)N1CCC[C@@H]1c1nnc(CO)n1Cc1ccc(Cl)cc1` [Compound 313] was tested, and the IC50 was < 50 nM. With `Cc1noc([C@H]2CCCN2C(=O)Nc2c(C)noc2C)c1Cc1ccc(Cl)cc1` [Compound 1] the IC50 was < 50 nM. In the case of `Cc1nc(C(F)(F)F)ccc1NC(=O)N1CCC[C@@H]1c1nnc(C)n1Cc1ccc(Cl)cc1` [Compound 404], the IC50 is reported as < 50 nM. With `Cc1nnc([C@H]2CCCN2c2c(Nc3ccc(F)cc3F)c(=O)c2=O)n1Cc1ccc(Cl)cc1` [Compound 579] the IC50 was 500 to 5000 nM. Work on `Cc1nnc([C@H]2CCCN2C(=O)N[C@H]2CCOc3cc(C(F)(F)F)ccc32)n1Cc1cccc(Br)c1` [Compound 540] yielded an IC50 of 500 to 5000 nM. `Cc1nnc([C@H]2CCCN2C(=O)N[C@H]2CCOc3cc(C(F)(F)F)ccc32)n1Cc1ccc(Cl)cc1` [Compound 111] was tested, and the IC50 was < 50 nM. Work on `O=C(N[C@H]1CCOc2cc(C(F)(F)F)ccc21)N1CCC[C@@H]1c1oncc1Cc1ccc(Cl)cc1` [Compound 4] yielded an IC50 of 50 to 500 nM. Compound `Cc1nnc([C@H]2CCCN2C(=O)Nc2cccc(S(C)(=O)=O)c2)n1Cc1ccc(Cl)cc1` [Compound 334] has an IC50 of 500 to 5000 nM. In the case of `CSc1nc(Cl)cc(NC(=O)N2CCC[C@@H]2c2nnc(C)n2Cc2ccc(Cl)cc2)n1` [Compound 255], the IC50 is reported as 500 to 5000 nM. With `Cc1noc(-c2ccccc2)c1NC(=O)N1CCC[C@@H]1c1nncn1Cc1ccc(Cl)cc1` [Compound 105] the IC50 was < 50 nM. In the case of `CCc1nnc([C@H]2CCCN2C(=O)N[C@H]2CCOc3cc(C(F)(F)F)ccc32)n1Cc1ccc(Cl)cc1` [Compound 209], the IC50 is reported as < 50 nM. `Cc1nnc([C@H]2CCCN2C(=O)NC2(c3cccc(F)c3)CC2)n1Cc1ccc(Cl)cc1` [Compound 266] was tested, and the IC50 was < 50 nM. `Cc1nnc([C@H]2CCCN2C(=O)NCC2(c3cccs3)CCOCC2)n1Cc1ccc(Cl)cc1` [Compound 623] gave an IC50 of 500 to 5000 nM. For `COc1cc(Cl)ccc1NC(=O)N1CCC[C@@H]1c1nnc(C)n1Cc1ccc(Cl)cc1` [Compound 428], the IC50 was < 50 nM. `Cc1ccc(NC(=O)N2CCC[C@@H]2c2nnc(C)n2Cc2ccc(Cl)cc2)c(C)n1` [Compound 362] was tested, and the IC50 was < 50 nM. With `Cc1nnc([C@H]2CCCN2C(=O)Nc2ccc(OC(F)(F)F)cc2)n1Cc1ccc(Cl)cc1` [Compound 136] the IC50 was < 50 nM. `Cc1nnc([C@H]2CCCN2C(=O)NC2CCc3cc(Cl)ccc32)n1Cc1ccc(Cl)cc1` (stereo partly drawn) [Compound 132] was tested, and the IC50 was < 50 nM. `CC(=O)O[C@@H]1C[C@H](c2nnc(C)n2Cc2ccc(Cl)cc2)N(C(=O)Nc2ccc(Cl)nc2Cl)C1` [Compound 500] gave an IC50 of 50 to 500 nM. In the case of `Cc1cc(C)c(C(=O)N(C)C)cc1NC(=O)N1CCC[C@@H]1c1nnc(C)n1Cc1ccc(Cl)cc1` [Compound 375], the IC50 is reported as 50 to 500 nM. In the case of `Cc1nnc([C@H]2CCCN2C(=O)Nc2ccc(Br)cc2C(F)(F)F)n1Cc1ccc(Cl)cc1` [Compound 197], the IC50 is reported as < 50 nM. For `Cc1nnc([C@H]2CCCN2C(=O)N[C@@H](C)c2ccc(Cl)c(Cl)c2)n1Cc1ccc(Cl)cc1` [Compound 168], the IC50 was < 50 nM. Work on `Cc1sc(NC(=O)N2CCC[C@@H]2c2nnc(C)n2Cc2ccc(Cl)cc2)nc1-c1ccccc1` [Compound 597] yielded an IC50 of 500 to 5000 nM. In the case of `COC(=O)c1ccc(NC(=O)N2CCC[C@@H]2c2nnc(C)n2Cc2ccc(Cl)cc2)c(C)c1` [Compound 215], the IC50 is reported as < 50 nM. For `CC1(C)CC[C@@H](NC(=O)N2CCC[C@@H]2c2ncnn2Cc2ccc(Cl)cc2)c2ccccc21` [Compound 77], the IC50 was 50 to 500 nM. With `Cc1nnc([C@H]2CCCN2C(=O)N[C@@H]2COCc3c(F)cccc32)n1Cc1ccc(Cl)cc1` [Compound 141] the IC50 was 50 to 500 nM. For `Cc1noc(C)c1NC(=O)N1CCC[C@@H]1c1nnc(C)n1[C@H](C)c1ccc(Cl)cc1` [Compound 365], the IC50 was 50 to 500 nM. With `Cc1nnc([C@H]2CC(=O)CN2C(=O)N[C@H]2CCOc3cc(C(F)(F)F)ccc32)n1Cc1ccc(Cl)cc1` [Compound 506] the IC50 was < 50 nM. In the case of `Cc1oc(-c2ccccc2)cc1NC(=O)N1CCC[C@@H]1c1nccn1Cc1ccc(Cl)cc1` [Compound 31], the IC50 is reported as < 50 nM. With `Cc1nnc([C@H]2CCCN2C(=O)Nc2ccc(Cl)cc2F)n1Cc1ccc(Cl)cc1` [Compound 144] the IC50 was < 50 nM. For `Cc1nnc([C@H]2CCCN2C(=O)N[C@H]2CCOc3cc(C(F)(F)F)ccc32)n1Cc1ccc(Br)cc1` [Compound 537], the IC50 was < 50 nM. `Cc1nnc([C@H]2CCCN2C(=O)N[C@@H](C)c2ccc(C(F)(F)F)nc2)n1Cc1ccc(Cl)cc1` [Compound 468] was tested, and the IC50 was < 50 nM. `O=C(N[C@H]1CCOc2cc(Cl)ccc21)N1CCC[C@@H]1c1nncn1Cc1ccc(Cl)cc1` [Compound 114] was tested, and the IC50 was < 50 nM. `Cc1nnc([C@H]2CCCN2C(=O)Nc2ccc(Cl)c(S(C)(=O)=O)c2)n1Cc1ccc(Cl)cc1` [Compound 443] showed an IC50 of 50 to 500 nM. In the case of `Cc1nc(C(F)(F)F)ccc1NC(=O)N1CCC[C@@H]1c1nnc(Cl)n1Cc1ccc(Cl)cc1` [Compound 549], the IC50 is reported as < 50 nM. For `CC[C@H](NC(=O)N1CCC[C@@H]1c1nnc(C)n1Cc1ccc(Cl)cc1)c1cc2cc(C(F)(F)F)ccc2o1` [Compound 280], the IC50 was < 50 nM. `Cc1nnc([C@H]2CCCN2C(=O)NCc2ccc(C(F)(F)F)nc2)n1Cc1ccc(Cl)cc1` [Compound 221] gave an IC50 of 50 to 500 nM. `O=C(NCc1ccc(C(F)(F)F)cc1)N1CCC[C@@H]1c1nnc(C(F)(F)F)n1Cc1ccc(Cl)cc1` [Compound 249] was tested, and the IC50 was 500 to 5000 nM. In the case of `Cc1ccnc(C)c1NC(=O)N1CCC[C@@H]1c1nnc(C)n1Cc1ccc(Cl)cc1` [Compound 316], the IC50 is reported as < 50 nM. `Cc1nnc([C@H]2CCCN2C(=O)Nc2ccc3c(c2)N(C)C(=O)CO3)n1Cc1ccc(Cl)nc1` [Compound 381] was tested, and the IC50 was 500 to 5000 nM. For `CC[C@H](Nc1c(N2CCC[C@@H]2c2nnc(C)n2Cc2ccc(Cl)cc2)c(=O)c1=O)c1cc2ccccc2o1` [Compound 588], the IC50 was 50 to 500 nM. With `CS(=O)(=O)c1ccc(NC(=O)N2CCC[C@@H]2c2ncnn2Cc2ccc(Cl)cc2)cc1` [Compound 76] the IC50 was 50 to 500 nM. Compound `O=C(N[C@H]1CCOc2cc(C(F)(F)F)ccc21)N1CCC[C@@H]1c1nnc(C(F)(F)F)n1Cc1ccc(Cl)cc1` [Compound 235] has an IC50 of 50 to 500 nM. In the case of `C[C@H](NC(=O)N1CCC[C@@H]1c1ncncc1Cc1ccc(Cl)cc1)c1ccc(C(F)(F)F)cc1` [Compound 20], the IC50 is reported as 50 to 500 nM. With `O=C(N[C@H]1CCCc2ccccc21)N1CCC[C@@H]1c1nccn1Cc1ccc(Cl)cc1` [Compound 29] the IC50 was < 50 nM. For `Cc1nnc([C@H]2CCCN2C(=O)NC2CCCOc3cc(C(F)(F)F)ccc32)n1Cc1ccc(Cl)cc1` (stereo partly drawn) [Compound 177], the IC50 was < 50 nM.
